According to patent US11987588B2, “Modulators of the beta-3 adrenergic receptor useful for the treatment or prevention of heart failure and disorders related thereto” (Arena Pharmaceuticals, Inc., priority 2017, dated 2024):
pIC50: −log10 of the molar value.

biological target: Beta-3 Adrenergic Receptor (Homo sapiens (Human), UniProt P13945); experiment: Homogeneous Time-Resolved Fluorescence (HTRF) cAMP antagonist assay, IC50 determination; assay type: cell-based; conditions: CHO-K1 cells stably expressing recombinant receptor, isoproterenol at EC90
Summary of the method: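 CHO-K1 cells stably expressing the recombinant receptor were preincubated with compound (10-point, 5-fold dilutions; top final typically 10 or 100 μM) in PBS with 1 mM IBMX, then stimulated with isoproterenol at its EC90 for 1 h at room temperature. cAMP was read by HTRF against an on-plate standard curve.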

Beta-3 Adrenergic Receptor, sequence (P13945 whole entry, species assumed): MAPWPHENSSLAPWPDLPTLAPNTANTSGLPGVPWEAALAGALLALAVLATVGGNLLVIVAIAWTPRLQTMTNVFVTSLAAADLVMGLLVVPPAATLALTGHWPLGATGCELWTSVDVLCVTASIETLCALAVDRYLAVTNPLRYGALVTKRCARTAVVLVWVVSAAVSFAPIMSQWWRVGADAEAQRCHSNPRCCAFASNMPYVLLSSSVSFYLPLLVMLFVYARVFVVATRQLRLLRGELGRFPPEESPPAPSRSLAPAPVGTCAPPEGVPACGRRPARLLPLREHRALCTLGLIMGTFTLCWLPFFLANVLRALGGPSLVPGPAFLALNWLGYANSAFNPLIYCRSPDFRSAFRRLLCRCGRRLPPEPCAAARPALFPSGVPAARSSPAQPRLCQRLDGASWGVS

| SMILES | pIC50 |
| --- | --- |
| CNS(=O)(=O)c1cccc(OC[C@@H](O)CNC2COC3(CCN(S(=O)(=O)c4cc(C)cc(F)c4)CC3)C2)c1 (stereo partly drawn) [Compound 179, 3-((2S)-3-(8-(3-fluoro-5-methylphenylsulfonyl)-1-oxa-8-azaspiro[4.5]decan-3-ylamino)-2-hydroxypropoxy)-N-methylbenzenesulfonamide] | 8.09 |
| CCCCCCCc1cnc(N2CCC3(CC2)C[C@@H](NC[C@H](O)COc2cccc(S(=O)(=O)NC)c2)CO3)nc1 [Compound 578, 3-((S)-3-((R)-8-(5-heptylpyrimidin-2-yl)-1-oxa-8-azaspiro[4.5]decan-3-ylamino)-2-hydroxypropoxy)-N-methylbenzenesulfonamide] | 6.37 |
| CNS(=O)(=O)c1cccc(OC[C@@H](O)CNC2COC3(CCN(S(=O)(=O)c4ccc5c(c4)CCC(C)(C)O5)CC3)C2)c1 (stereo partly drawn) [Compound 127, 3-((2S)-3-(8-(2,2-dimethylchroman-6-ylsulfonyl)-1-oxa-8-azaspiro[4.5]decan-3-ylamino)-2-hydroxypropoxy)-N-methylbenzenesulfonamide] | 7.83 |
| CNS(=O)(=O)c1cccc(OC[C@@H](O)CNC2COC3(CCN(S(=O)(=O)c4cccc(-c5ccncc5)c4)CC3)C2)c1 (stereo partly drawn) [Compound 106, 3-((2S)-2-hydroxy-3-(8-(3-(pyridin-4-yl)phenylsulfonyl)-1-oxa-8-azaspiro[4.5]decan-3-ylamino)propoxy)-N-methylbenzenesulfonamide] | 7.88 |
| CNS(=O)(=O)c1cccc(OC[C@@H](O)CN[C@@H]2COC3(CCN(S(=O)(=O)c4cc(OC)cc(-c5ccc(CN)cc5)c4)CC3)C2)c1 [Compound 449, 3-((S)-3-((S)-8-(4′-(aminomethyl)-5-methoxybiphenyl-3-ylsulfonyl)-1-oxa-8-azaspiro[4.5]decan-3-ylamino)-2-hydroxypropoxy)-N-methylbenzenesulfonamide] | 7.91 |
| CNS(=O)(=O)c1cccc(OC[C@@H](O)CNC2COC3(CCN(S(=O)(=O)c4ccc(-c5ccc(F)cc5)cc4)CC3)C2)c1 (stereo partly drawn) [Compound 122, 3-((2S)-3-(8-(4′-fluorobiphenyl-4-ylsulfonyl)-1-oxa-8-azaspiro[4.5]decan-3-ylamino)-2-hydroxypropoxy)-N-methylbenzenesulfonamide] | 7.47 |
| CNS(=O)(=O)c1cccc(OC[C@@H](O)CNC2COC3(CCN(S(=O)(=O)c4ccccc4)CC3)C2)c1 (stereo partly drawn) [Compound 14, 3-((2S)-2-hydroxy-3-(8-(phenylsulfonyl)-1-oxa-8-azaspiro[4.5]decan-3-ylamino)propoxy)-N-methylbenzenesulfonamide] | 7.52 |
| CNS(=O)(=O)c1cccc(OC[C@@H](O)CNC2COC3(CCN(S(=O)(=O)c4cccc(-c5cccc(CN)c5)c4)CC3)C2)c1 (stereo partly drawn) [Compound 67, 3-((2S)-3-(8-(3′-(aminomethyl)biphenyl-3-ylsulfonyl)-1-oxa-8-azaspiro[4.5]decan-3-ylamino)-2-hydroxypropoxy)-N-methylbenzenesulfonamide] | 7.64 |
| CNS(=O)(=O)c1cccc(OC[C@@H](O)CNC2COC3(CCN(S(=O)(=O)c4ccc(OC(C)C)cc4)CC3)C2)c1 (stereo partly drawn) [Compound 137, 3-((2S)-2-hydroxy-3-(8-(4-isopropoxyphenylsulfonyl)-1-oxa-8-azaspiro[4.5]decan-3-ylamino)propoxy)-N-methylbenzenesulfonamide] | 7.62 |
| CNS(=O)(=O)c1cccc(OC[C@@H](O)CN[C@H]2COC3(CCN(c4cnccn4)CC3)C2)c1 [Compound 586, 3-((S)-2-hydroxy-3-((R)-8-(pyrazin-2-yl)-1-oxa-8-azaspiro[4.5]decan-3-ylamino)propoxy)-N-methylbenzenesulfonamide] | 6.12 |
| CONS(=O)(=O)c1cccc(OC[C@@H](O)CN[C@H]2COC3(CCN(S(=O)(=O)c4cnc5c(c4)N(C)CCO5)CC3)C2)c1 [Compound 451, 3-((S)-2-hydroxy-3-((R)-8-(1-methyl-2,3-dihydro-1H-pyrido[2,3-b][1,4]oxazin-7-ylsulfonyl)-1-oxa-8-azaspiro[4.5]decan-3-ylamino)propoxy)-N-methoxybenzenesulfonamide] | 5.67 |
